Measured values: ChEMBL document CHEMBL4373717, “Coumarin-containing hybrids and their anticancer activities” (Eur J Med Chem, 2019)
≈ marks a conversion by molar mass, not a printed value.

Assays:
[1] = tested on: MCF7; assay: Cytotoxicity against human MCF7 cells assessed as reduction in cell viability; type: functional, cell-based
[2] = target: Vascular endothelial growth factor receptor 2 (Homo sapiens, UniProt P35968); assay: Inhibition of VEGFR2 (unknown origin)
[3] = tested on: DLD-1; assay: Cytotoxicity against human DLD1 cells assessed as reduction in cell viability; type: functional, cell-based
[4] = tested on: HT-29; assay: Cytotoxicity against human HT-29 cells assessed as reduction in cell viability after 96 hrs by MTT assay; type: functional, cell-based; settings: HT-29, 96 h
[5] = tested on: HCT-116; assay: Cytotoxicity against human HCT116 cells assessed as reduction in cell viability after 96 hrs by MTT assay; type: functional, cell-based; settings: HCT-116, 96 h
[6] = tested on: MDA-MB-231; assay: Cytotoxicity against human MDA-MB-231 cells assessed as reduction in cell viability after 96 hrs by MTT assay; type: functional, cell-based; settings: MDA-MB-231, 96 h
[7] = tested on: MCF7; assay: Cytotoxicity against human MCF7 cells assessed as reduction in cell viability by MTT assay; type: functional, cell-based; settings: Homo sapiens, MCF7
[8] = tested on: HepG2; assay: Cytotoxicity against human HepG2 cells assessed as reduction in cell viability by MTT assay; type: functional, cell-based; settings: Homo sapiens, HepG2
[9] = tested on: OVCAR-3; assay: Anticancer activity against human OVCAR3 cells by CCK8 assay; type: functional, cell-based
[10] = tested on: A2780; assay: Anticancer activity against human A2780 cells by CCK8 assay; type: functional, cell-based
[11] = tested on: HepG2; assay: Anticancer activity against human HepG2 cells by CCK8 assay; type: functional, cell-based
[12] = tested on: Hep 3B2; assay: Anticancer activity against human Hep3B cells by CCK8 assay; type: functional, cell-based
[13] = tested on: BT-20; assay: Cytotoxicity against human BT20 cells assessed as reduction in cell viability after 24 hrs by MTT assay; type: functional, cell-based; settings: BT-20, 24 h
[14] = tested on: SK-MEL-28; assay: Cytotoxicity against human SK-MEL-28 cells assessed as reduction in cell viability after 24 hrs by MTT assay; type: functional, cell-based; settings: SK-MEL-28, 24 h
[15] = tested on: A549; assay: Cytotoxicity against human A549 cells assessed as reduction in cell viability after 24 hrs by MTT assay; type: functional, cell-based; settings: A549, 24 h
[16] = tested on: DU-145; assay: Cytotoxicity against human DU145 cells assessed as reduction in cell viability after 24 hrs by MTT assay; type: functional, cell-based; settings: DU-145, 24 h
[17] = tested on: MCF7; assay: Cytotoxicity against human MCF7 cells assessed as reduction in cell viability after 48 hrs by MTT assay; type: functional, cell-based; settings: MCF7, 48 h
[18] = tested on: HepG2; assay: Cytotoxicity against human HepG2 cells assessed as reduction in cell viability after 48 hrs by MTT assay; type: functional, cell-based; settings: HepG2, 48 h
[19] = tested on: HepG2; assay: Antiproliferative activity against human HepG2 cells after 72 hrs by ELISA; type: functional, cell-based; settings: HepG2, 72 h
[20] = tested on: Caco-2; assay: Antiproliferative activity against human Caco2 cells after 72 hrs by ELISA; type: functional, cell-based; settings: Caco-2, 72 h
[21] = tested on: MCF7; assay: Antiproliferative activity against human MCF7 cells after 72 hrs by ELISA; type: functional, cell-based; settings: MCF7, 72 h
[22] = Growth inhibition of human KATO III cells; type: functional
[23] = tested on: OVCAR-8; assay: Growth inhibition of human OVCAR8 cells; type: functional
[24] = tested on: T-24; assay: Growth inhibition of human T24 cells; type: functional
[25] = tested on: MCF7; assay: Growth inhibition of human MCF7 cells; type: functional
[26] = tested on: SN12C; assay: Growth inhibition of human SN12C cells; type: functional
[27] = tested on: SK-OV-3; assay: Growth inhibition of human SKOV3 cells; type: functional
[28] = tested on: PANC-1; assay: Growth inhibition of human PANC1 cells; type: functional
[29] = tested on: BXPC-3; assay: Growth inhibition of human BxPC3 cells; type: functional
[30] = tested on: WiDr; assay: Growth inhibition of human WiDr cells; type: functional
[31] = tested on: AGS; assay: Growth inhibition of human AGS cells; type: functional
[32] = tested on: HepG2; assay: Growth inhibition of human HepG2 cells; type: functional
[33] = tested on: SNU1; assay: Growth inhibition of human SNU1 cells; type: functional
[34] = tested on: MCF7; assay: Cytotoxicity against human MCF7 cells assessed as reduction in cell viability after 68 hrs by MTT assay; type: functional, cell-based; settings: MCF7, 68 h
[35] = tested on: K562; assay: Cytotoxicity against human K562 cells assessed as reduction in cell viability after 68 hrs by MTT assay; type: functional, cell-based; settings: K562, 68 h
[36] = tested on: HeLa; assay: Cytotoxicity against human HeLa cells assessed as reduction in cell viability after 68 hrs by MTT assay; type: functional, cell-based
[37] = tested on: A549; assay: Cytotoxicity against human A549 cells assessed as reduction in cell viability after 68 hrs by MTT assay; type: functional, cell-based; settings: A549, 68 h
[38] = target: RAC-alpha serine/threonine-protein kinase (Homo sapiens, UniProt P31749); assay: Inhibition of AKT phosphorylation in human K562 cells; type: cell-based
[39] = tested on: K562; assay: Cytotoxicity against human K562 cells assessed as reduction in cell viability after 72 hrs by MTT assay; type: functional, cell-based; settings: K562, 72 h
[40] = tested on: HeLa; assay: Cytotoxicity against human HeLa cells assessed as reduction in cell viability after 72 hrs by MTT assay; type: functional, cell-based
[41] = tested on: Caco-2; assay: Cytotoxicity against human Caco2 cells assessed as reduction in cell viability after 72 hrs by MTT assay; type: functional, cell-based; settings: Caco-2, 72 h

Sequence of Vascular endothelial growth factor receptor 2 (P35968 whole entry): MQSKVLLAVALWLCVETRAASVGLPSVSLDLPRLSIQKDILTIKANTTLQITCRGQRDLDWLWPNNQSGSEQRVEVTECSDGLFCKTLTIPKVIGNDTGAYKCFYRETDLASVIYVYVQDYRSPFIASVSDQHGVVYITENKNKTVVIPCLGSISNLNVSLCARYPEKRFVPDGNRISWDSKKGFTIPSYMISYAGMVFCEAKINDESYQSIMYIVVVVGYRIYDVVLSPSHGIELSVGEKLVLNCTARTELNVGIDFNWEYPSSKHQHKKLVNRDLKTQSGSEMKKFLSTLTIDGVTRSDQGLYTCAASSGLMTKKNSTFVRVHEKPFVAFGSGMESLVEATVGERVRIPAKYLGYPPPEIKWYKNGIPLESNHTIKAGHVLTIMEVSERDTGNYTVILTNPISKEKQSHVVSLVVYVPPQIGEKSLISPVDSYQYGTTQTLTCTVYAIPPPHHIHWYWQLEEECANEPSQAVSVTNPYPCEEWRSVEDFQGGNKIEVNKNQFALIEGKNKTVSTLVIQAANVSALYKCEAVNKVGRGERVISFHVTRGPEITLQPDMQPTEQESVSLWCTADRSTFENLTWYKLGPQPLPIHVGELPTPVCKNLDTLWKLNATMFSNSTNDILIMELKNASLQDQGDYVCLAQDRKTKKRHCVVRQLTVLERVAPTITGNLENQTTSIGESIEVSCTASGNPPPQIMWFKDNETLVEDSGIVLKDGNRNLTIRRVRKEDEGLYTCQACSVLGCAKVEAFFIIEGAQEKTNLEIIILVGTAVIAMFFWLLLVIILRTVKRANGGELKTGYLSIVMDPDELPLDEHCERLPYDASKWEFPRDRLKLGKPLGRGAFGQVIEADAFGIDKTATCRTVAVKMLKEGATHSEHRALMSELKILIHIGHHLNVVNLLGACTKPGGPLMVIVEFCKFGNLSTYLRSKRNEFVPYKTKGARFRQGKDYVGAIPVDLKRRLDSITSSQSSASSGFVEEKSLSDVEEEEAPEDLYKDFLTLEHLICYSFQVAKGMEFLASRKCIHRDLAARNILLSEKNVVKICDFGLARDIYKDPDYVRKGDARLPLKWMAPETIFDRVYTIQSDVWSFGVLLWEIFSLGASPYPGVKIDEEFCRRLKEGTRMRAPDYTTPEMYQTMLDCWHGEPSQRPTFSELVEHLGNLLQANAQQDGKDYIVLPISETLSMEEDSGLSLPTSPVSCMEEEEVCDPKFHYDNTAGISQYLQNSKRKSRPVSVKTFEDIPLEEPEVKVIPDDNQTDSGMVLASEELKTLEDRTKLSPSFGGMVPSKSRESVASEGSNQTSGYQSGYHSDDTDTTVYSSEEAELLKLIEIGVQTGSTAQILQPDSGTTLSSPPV
Sequence of RAC-alpha serine/threonine-protein kinase (P31749 whole entry): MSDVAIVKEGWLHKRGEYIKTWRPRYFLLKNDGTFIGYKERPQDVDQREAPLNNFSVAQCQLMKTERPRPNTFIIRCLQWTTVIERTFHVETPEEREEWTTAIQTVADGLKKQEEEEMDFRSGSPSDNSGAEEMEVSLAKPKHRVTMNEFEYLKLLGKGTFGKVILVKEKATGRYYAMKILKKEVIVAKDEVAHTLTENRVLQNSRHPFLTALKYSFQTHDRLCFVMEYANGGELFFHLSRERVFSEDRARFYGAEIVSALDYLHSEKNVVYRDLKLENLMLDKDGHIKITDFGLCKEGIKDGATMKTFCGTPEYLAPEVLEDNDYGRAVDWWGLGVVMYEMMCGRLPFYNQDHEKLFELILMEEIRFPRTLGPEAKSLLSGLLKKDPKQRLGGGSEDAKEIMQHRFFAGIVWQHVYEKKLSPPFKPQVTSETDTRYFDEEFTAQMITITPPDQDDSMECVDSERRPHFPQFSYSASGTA

SMILES: Cc1ccc(/N=N/c2sc(N3N=C(c4c(O)c5ccccc5oc4=O)CC3c3ccc(N(C)C)cc3)nc2-c2ccccc2)cc1 (centres undefined)
- IC50 [1]: 5.41 to 6.56 µM
- IC50 [2]: 0.034 to 0.582 µM
- IC50 [3]: 114 to 129 µM

SMILES: Cc1ccc2c(Cn3cc(CO[C@H]4O[C@@H]5O[C@@]6(C)CC[C@H]7[C@H](C)CC[C@@H]([C@H]4C)[C@@]57OO6)nn3)cc(=O)oc2c1
- IC50 [4]: 8.57 to 100 µM
- IC50 [5]: 8.57 to 100 µM
- IC50 [6]: 8.57 to 100 µM

SMILES: Cc1ccc2oc(=O)cc(CSc3nc(-c4ccccc4)c(C#N)c(N4CCNCC4)n3)c2c1
- IC50 [7]: 5.5 to 91.1 µM
- IC50 [8]: 5.5 to 91.1 µM

SMILES: CCN(CC)c1ccc2cc(C(=O)N3CCN(CCC[C@H]4O[C@@H]5O[C@@]6(C)CC[C@H]7[C@H](C)CC[C@@H]([C@H]4C)[C@@]57OO6)CC3)c(=O)oc2c1
- IC50 [9]: 3.05 to 5.82 µM
- IC50 [10]: 3.05 to 5.82 µM
- IC50 [11]: 3.05 to 5.82 µM
- IC50 [12]: 3.05 to 5.82 µM

SMILES: O=C(Cn1nc(Cc2ccc(Cl)c(Cl)c2)[nH]c1=O)NNC(=O)c1cc2cc(Cl)ccc2oc1=O
- IC50 [13]: 3.1 to 37.9 mg/L (≈ 5.93 to 72.5 µM)
- IC50 [14]: 3.1 to 37.9 mg/L (≈ 5.93 to 72.5 µM)
- IC50 [15]: 3.1 to 37.9 mg/L (≈ 5.93 to 72.5 µM)
- IC50 [16]: 3.1 to 37.9 mg/L (≈ 5.93 to 72.5 µM)

SMILES: Cc1cc(-c2cc3ccccc3oc2=O)n(-c2nc(-c3ccc(Cl)cc3)cs2)n1
- IC50 [17]: 4.03 to 31.5 µM
- IC50 [18]: 3.06 to 3.74 µM

SMILES: CCN(CC)c1ccc2cc(C(=O)NCCNC(=O)CN3CCN(CCC[C@H]4O[C@@H]5O[C@@]6(C)CC[C@H]7[C@H](C)CC[C@@H]([C@H]4C)[C@@]57OO6)CC3)c(=O)oc2c1
- IC50 [9]: 2.33 to 23.7 µM
- IC50 [10]: 2.33 to 23.7 µM
- IC50 [11]: 2.33 to 23.7 µM
- IC50 [12]: 2.33 to 23.7 µM

SMILES: C/C(=N\Nc1ccccc1)c1ccc(NS(=O)(=O)c2ccc3oc(=O)ccc3c2)cc1
- IC50 [19]: 5.03 to 175 µM
- IC50 [20]: 8.53 µM
- IC50 [21]: 5.03 to 175 µM

SMILES: Cc1cc(C)c2c(Cn3cc(CO[C@H]4O[C@@H]5O[C@@]6(C)CC[C@H]7[C@H](C)CC[C@@H]([C@H]4C)[C@@]57OO6)nn3)cc(=O)oc2c1
- IC50 [4]: 8.57 to 100 µM
- IC50 [5]: 8.57 to 100 µM
- IC50 [6]: 8.57 to 100 µM

SMILES: CCN(CC)c1ccc2cc(C(=O)NNC(=O)Cn3nc(Cc4ccc(Cl)c(Cl)c4)[nH]c3=O)c(=O)oc2c1
- IC50 [13]: 3.1 to 37.9 mg/L (≈ 5.54 to 67.7 µM)
- IC50 [14]: 3.1 to 37.9 mg/L (≈ 5.54 to 67.7 µM)
- IC50 [15]: 3.1 to 37.9 mg/L (≈ 5.54 to 67.7 µM)
- IC50 [16]: 3.1 to 37.9 mg/L (≈ 5.54 to 67.7 µM)

SMILES: O=C(Cn1nc(Cc2ccc(Cl)cc2)[nH]c1=O)NNC(=O)c1cc2cc(Cl)cc(Cl)c2oc1=O
- IC50 [13]: 3.1 to 37.9 mg/L (≈ 5.93 to 72.5 µM)
- IC50 [14]: 3.1 to 37.9 mg/L (≈ 5.93 to 72.5 µM)
- IC50 [15]: 3.1 to 37.9 mg/L (≈ 5.93 to 72.5 µM)
- IC50 [16]: 3.1 to 37.9 mg/L (≈ 5.93 to 72.5 µM)

SMILES: O=C(Cn1nc(Cc2ccccc2Br)[nH]c1=O)NNC(=O)c1cc2cc(Cl)cc(Cl)c2oc1=O
- IC50 [13]: 3.1 to 37.9 mg/L (≈ 5.47 to 66.8 µM)
- IC50 [14]: 3.1 to 37.9 mg/L (≈ 5.47 to 66.8 µM)
- IC50 [15]: 3.1 to 37.9 mg/L (≈ 5.47 to 66.8 µM)
- IC50 [16]: 3.1 to 37.9 mg/L (≈ 5.47 to 66.8 µM)

SMILES: C/C(=N\Nc1c(Cl)cc(Cl)cc1Cl)c1ccc(NS(=O)(=O)c2ccc3oc(=O)ccc3c2)cc1
- IC50 [19]: 5.03 to 175 µM
- IC50 [20]: 5.03 to 175 µM
- IC50 [21]: 5.03 to 175 µM

SMILES: C/C(=N\Nc1nc(C)c(-c2ccccc2)s1)c1ccc(NS(=O)(=O)c2ccc3oc(=O)ccc3c2)cc1
- IC50 [19]: 3.48 µM
- IC50 [20]: 5.03 to 175 µM
- IC50 [21]: 5.03 to 175 µM

SMILES: COc1ccc2oc(=O)c(-c3nc4cc(OC)ccc4[nH]3)cc2c1
- GI50 [22]: 0.07 to 3.57 µM
- GI50 [23]: 0.07 to 3.57 µM
- GI50 [24]: 0.07 to 3.57 µM
- GI50 [25]: > 10 µM
- GI50 [26]: 0.07 to 3.57 µM
- GI50 [27]: 0.07 to 3.57 µM
- GI50 [28]: 0.07 to 3.57 µM
- GI50 [29]: 0.07 to 3.57 µM
- GI50 [30]: 0.07 to 3.57 µM
- GI50 [31]: 0.07 to 3.57 µM
- GI50 [32]: 0.07 to 3.57 µM
- GI50 [33]: 0.07 to 3.57 µM

SMILES: COc1ccc(NC(=O)Nc2ccc(Cc3c(C)c4cc(C(C)(C)C)c(O)cc4oc3=O)cn2)cc1
- IC50 [34]: 1.66 to 9.27 µM
- IC50 [35]: 1.66 to 9.27 µM
- IC50 [36]: 1.66 to 9.27 µM
- IC50 [37]: 1.66 to 9.27 µM
- IC50 [38]: < 10 µM

SMILES: CN(C)c1ccc(C2CC(c3c(O)c4ccccc4oc3=O)=NN2c2nc(-c3ccccc3)c(/N=N/c3ccc(Cl)cc3)s2)cc1 (centres undefined)
- IC50 [1]: 5.41 to 6.56 µM
- IC50 [2]: 5.41 µM
- IC50 [3]: 114 to 129 µM

SMILES: COc1cccc(-c2cn(Cc3cc(=O)oc4cc(O)c(O)cc34)nn2)c1
- IC50 [39]: 9.7 to 81.9 µM
- IC50 [40]: 9.7 to 81.9 µM
- IC50 [41]: 9.7 to 81.9 µM

SMILES: Cc1ccc2oc(=O)cc(CSc3nc(-c4ccccc4)c(C#N)c(N4CCOCC4)n3)c2c1
- IC50 [7]: 5.5 to 91.1 µM
- IC50 [8]: 5.5 to 91.1 µM

SMILES: C/C(=N\NC1=NC(=O)C(C)S1)c1ccc(NS(=O)(=O)c2ccc3oc(=O)ccc3c2)cc1 (centres undefined)
- IC50 [19]: 5.03 to 175 µM
- IC50 [20]: 5.03 to 175 µM
- IC50 [21]: 5.03 to 175 µM
